The values below come from publication PMC11294390 (Analytical and Bioanalytical Chemistry, 2024).

In data set [1] the target is human serum albumin (HSA) (Homo sapiens, UniProt P02768). Particulars: for k (retention factor): Chiralpak HSA column, racemates.
Data set [2] deals with T1, HSA Sudlow site I (Homo sapiens, UniProt P02768).
T1 construct: purchased Chiral Technologies Europe (Daicel Chemical Industries, Ltd., Osaka, Japan)
In words: Displacement chromatography (zonal elution) with warfarin as competitor. In kind it is binding. Particulars: k decreases with rising warfarin, P < 0.05; 1/k vs competitor linear, positive slope.

For data set [3], the system named is HSA. Particulars: equilibrium and dynamic dialysis; cited from earlier work.
Data set [4] has as its system HSA. As to conditions: value in brackets; cited from earlier work.
The subject of data set [5] is differentiated SH-SY5Y cells. Particulars: cited from earlier work.
Data set [6] has as its system human plasma proteins. As to conditions: racemate incubated with plasma, ultrafiltration; cited from earlier work.
The test system of data set [7] is bovine serum albumin. Particulars: spectroscopic technology; cited from earlier work.
The test system of data set [8] is HSA. Particulars: cited from earlier work.
Data set [9] has as its system HSA. Further details: method as in PMID 24666938. As to conditions: HPAC, immobilized HSA column; cited from earlier work.
The test system of data set [10] is HSA. Particulars: literature-reported; cited from earlier work.
[11] abbreviates: 100% potassium phosphate buffer 67 mM pH 7.0, 25 °C.
[12] abbreviates: from k by Eq. 4, 100% potassium phosphate buffer 67 mM pH 7.0, 25 °C.

Molecules are shown by their SMILES. Read-outs that look alike come from different tables or passages of the source.

T1 sequence (P02768 25-609): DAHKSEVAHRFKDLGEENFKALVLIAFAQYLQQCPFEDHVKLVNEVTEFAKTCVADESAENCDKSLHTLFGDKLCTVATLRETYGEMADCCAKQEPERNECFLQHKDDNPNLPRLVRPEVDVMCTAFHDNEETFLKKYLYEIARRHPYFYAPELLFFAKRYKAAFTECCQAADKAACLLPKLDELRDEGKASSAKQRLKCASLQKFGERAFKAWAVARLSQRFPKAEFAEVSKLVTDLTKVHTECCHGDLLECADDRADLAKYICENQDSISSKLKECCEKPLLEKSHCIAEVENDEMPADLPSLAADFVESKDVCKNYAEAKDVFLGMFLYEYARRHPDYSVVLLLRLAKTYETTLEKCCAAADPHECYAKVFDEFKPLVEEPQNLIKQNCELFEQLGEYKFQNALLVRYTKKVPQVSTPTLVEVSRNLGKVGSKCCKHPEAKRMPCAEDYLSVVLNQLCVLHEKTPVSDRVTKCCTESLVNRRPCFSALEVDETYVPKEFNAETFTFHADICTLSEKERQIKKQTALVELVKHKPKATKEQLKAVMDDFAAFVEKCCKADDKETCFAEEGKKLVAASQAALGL
Sequence of human serum albumin (HSA) (P02768 25-609): as above

As for `COc1ccc2c3c1O[C@H]1[C@@H](O)C=C[C@H]4[C@@H](C2)N(C)CC[C@@]341` [COD, codeine], the “k (retention factor)” value in [1] (setting [11]) is listed as 1.89. Besides, the “Bound fraction (%b) to HSA” value in data set [1] (setting [12]) is recorded as 65%. In [2], the “Competition with warfarin (site I)” value is “competition was also observed for both sites I and II”. In addition, the “Binding percentage to HSA” value in data set [3] is “about 29%”.

As to `CN(C)CCCN1c2ccccc2Sc2ccc(Cl)cc21` [Chlorpromazine, chlorpromazine], the “Bound fraction (%b) to HSA, experimental, controls” value in [1] (human, pH 7) amounted to 98.1%. Besides, the “Bound fraction (%b) to HSA, literature value” in data set [4] is listed as over 90%.

With `CNC(C)CN1c2ccccc2Sc2ccccc21` (stereo not shown) [DMPMZ, N-desmonomethyl promethazine], the “k (retention factor)” value in data set [1] (setting [11]) worked out at 16.34. Besides, the Cytotoxicity entry in [5] is on record as “even more cytotoxic than PMZ”. Besides, the “Competition with warfarin (site I)” value in [2] was “also compete with warfarin and (S)-ibuprofen”.

On to `Cc1ncc([N+](=O)[O-])n1CCO` [Metronidazole, metronidazole], for which the “Bound fraction (%b) to HSA, experimental, controls” value in [1] (human, pH 7) stood at 19.8%. In addition, the “Bound fraction (%b) to HSA, literature value” in [4] was 20.0%.

Consider `CC(CN1c2ccccc2Sc2ccccc21)N(C)C` (stereo not shown) [PMZ, promethazine], for which the “Bound fraction (%b) to HSA” value in [1] (setting [12]) turned out to be 98%. For the same molecule, the “Enantioselective binding to human plasma proteins” value in data set [6] was “evidence of the enantioselective binding”. Also, in data set [7], the “Binding constant to bovine serum albumin” value is reported as 1.40 ± 0.04 × 10^4 M^−1. The “Association constant of binding to HSA” value in data set [8] (fluorescence and adsorption spectroscopy) is listed as 1.57 ± 0.20 × 10^4 M^−1; in [9], 1.24 ± 0.14 × 10^4 M^−1. Besides, the “Binding site on HSA” value in data set [8] (fluorescence spectroscopy) was “located in site I (subdomain IIA)”. Moreover, the “Competition with warfarin (site I)” value in data set [2] is listed as “competes with warfarin”.

With `CC(CN1c2ccccc2[S+]([O-])c2ccccc21)N(C)C` (stereo not shown) [PMZSO, promethazine sulphoxide], the “k (retention factor)” value in [1] (setting [11]) was found to be 3.99. Also, in data set [1] (human, 50 µg/mL, pH 7), the “Bound fraction (%b) to HSA” value is listed as 80%. Also, the “Competition with warfarin (site I)” value in data set [2] is “also compete with warfarin and (S)-ibuprofen”.

Regarding `CC(=O)CC(c1ccccc1)c1c(O)c2ccccc2oc1=O` (stereo not shown) [Warfarin, warfarin], in data set [10], the “Affinity constant for HSA” value was 330000 M⁻¹.
